The source of these data is patent US12102633B2, “Spirolactone compounds” (Quixgen, Inc., priority 2017, dated 2024).

The subject of series [1] is T1, Mouse ACC (ACC protein purified from liver).
T1 construct: ACC protein was purified by taking advantage of the biotinylation in the carboxylase domain
In words: Mouse ACC enzymatic activity assay. The class given is biochemical. Conditions: read-out: EA-CoA mACC IC50. The method in brief:
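ACC affinity-purified from livers of male C57BL/6J mice (biotin-based capture), pre-incubated 10 min at 37 °C with compound. Reaction with 0.5 mM acetyl-CoA, 4.0 mM ATP, 15 mM 13C-NaHCO3, 0.5 mM citrate, pH 7.5, 1 h at 37 °C; malonyl-13C-CoA quantified by LC-MS/MS as pmoles/mg protein per minute.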

A further series has as its system Human sebocytes. In words: Proliferation of human sebocytes. The class given is cell-based. Conditions: 24 hours, MTT, read-out: AP-Sebo IC50. How it is done: Human sebocytes (Celprogen) and keratinocytes (ATCC) were grown in 96-well culture microplate (Coming) with growth media to around 50% confluency. Media was changed to growth media mixed with serially diluted compounds in DMSO (1:1000 dilution). After treatment for 24 hours, media was changed to 100 μL phenol red free DMEM and cell numbers were quantitated by using Vybrant® MTT Cell Proliferation Assay Kit (Molecular Probes). Ten μL of 12 mM MTT stock solution was added to each well and the microplate was incubated at 37° C. for 4 hours. Then 100 μL of the SDS-HCl solution was added to each well and mixed thoroughly using a pipette. The microplate was incubated at 37° C. for 4 hours in a cell culture incubator. The microplate was mixed again using a pipette and absorbance was read at 570 nm (Dynex MRX^e Magellan Biosciences). Effect of compounds on proliferation of human keratinocytes was calculated by % of DMSO vehicle control.

Series [2] can be described thus: Standard PK in CD-1 mice (m-PK). The class given is in vivo, mouse. Conditions: for half-life / clearance: male; for half-life: CD-1, mouse, whole blood, read-out: m-PK T1/2 (converted); for clearance: CD-1, whole blood, 1 mg/kg IV, read-out: m-PK Cl; for clearance / m-PK F: mouse; for m-PK F: 5 mg/kg PO vs 1 mg/kg IV. How it is done: Standard PK. Male catheterized CD-1 mice were treated with Compound 6 prepared in vehicle (5% DMSO+10% Solutol+85% PBS, PH=7.4) at doses of 1 mg/kg for IV (5 mL/kg) or 5 mg/kg for PO (10 mL/kg). Blood samples (20 VL) were collected at 0.083, 0.25, 0.5, 1, 2, 4, 8, and 24 hrs post dose and mixed with 60 VL 0.1 M sodium citrate. Upon extraction by using acetonitrile, blood concentrations of Compound 6 were quantitated by LC-MS/MS. PK parameters were calculated by using WinNonlin® 6.4.

For the compound `COc1cc(C(=O)N2CCC3(CC2)Cc2ccc(C(C)C)cc2C(=O)O3)nc2c(OC)cccc12` [Example 2, 1′-(4,8-dimethoxyquinoline-2-carbonyl)-7-isopropylspiro[isochroman-3,4′-piperidin]-1-one], the IC50 in series [1] worked out at 2.4 nM. The IC50 in the series with Human sebocytes was 57.1 nM. Further, in series [2], the half-life was 25.2 min, the clearance turned out to be 46.5 mL/min/kg and the “m-PK F” value is listed as “F: 4.9%”.

As to `COc1cc(C(=O)N2CCC3(CC2)Cc2ccc(Nc4ccnn4C)cc2C(=O)O3)nc2c(OC)cccc12` [Example 6, 1′-(4,8-dimethoxyquinoline-2-carbonyl)-7-((1-methyl-1H-pyrazol-5-yl)amino)spiro[isochroman-3,4′-piperidin]-1-one], in series [1], the IC50 was found to be 0.34 nM. In addition, the IC50 with Human sebocytes is 2.5 nM. Moreover, in series [2], the half-life was 30 min, the clearance was 15.2 mL/min/kg and the “m-PK F” value is recorded as “F: 53%”.
